Results reported in patent US20260374766A1, “METHODS FOR TREATING CANCER” (Antares Therapeutics, Inc., priority 2022, published 2026).
Read-outs that look alike come from different tables or passages of the source.

Legend:
p53 Y220C = p53 Y220C (Homo sapiens, UniProt P04637, Y220C); test: Luciferase Reporter Assay (Luc), p53 response element, NClH1299 cells with inducible p53 Y220C; type: cell-based; conditions: luciferase reporter, NClH1299 inducible p53 Y220C, 6 hour; for Emax: 10 uM tool compound as positive control; for AC50: read-out: Luc P53 Y220C AC50
Procedure, shortened: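 Cells were seeded at 5,000 per well and induced with 0.5 ug/mL doxycycline for 24 hours, then exposed to compound for 6 hours. One-Glo reagent was added, plates shaken 5 minutes at room temperature, and luminescence read immediately.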

H1299 p53 Y220C = test: Cell Proliferation Assay (CellTiter-Glo, CTG), H1299 p53 Y220C (NClH1299-inducible p53 Y220C); type: cell-based; conditions: Homo sapiens, NCI-H1299, 120 h, CellTiter-Glo, H1299 p53 Y220C, 5 days
Procedure, shortened: (§1)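 NClH1299 lines stably transduced with Tet-inducible p53 Y220C or R273H, plus NUGC3, were treated with compound for 5 days at 250-500 cells/well. IC50 derived from CellTiter-Glo luminescent signal after 10 min room-temperature incubation.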

NUGC3 p53 Y220C = test: Cell Proliferation Assay (CellTiter-Glo, CTG), NUGC3 p53 Y220C; type: cell-based; conditions: Homo sapiens, NUGC-3, 120 h, CellTiter-Glo, NUGC3 p53 Y220C, 5 days
Procedure, shortened: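 Tet-One inducible p53 Y220C or R273H constructs were stably introduced into NCI-H1299 by lentiviral transduction; NUGC3 was used as is. Cells (250-500 per well) were exposed to compound for 5 days, then CellTiter-Glo was added for 10 min at room temperature and IC50 was calculated from luminescence.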

[1] = molecular target: T1, p53 Y220C mutant protein (amino acid residues 94-293) (Homo sapiens, UniProt P04637, Y220C); test: Thermal Shift Assay (TSA), dTM; type: binding; conditions: thermal shift; for ΔTm at 100 µM: 100 uM compound, read-out: TSA P53 Y220C dTM (100 uM); for ΔTm at 10 µM: 10 uM compound, read-out: TSA P53 Y220C dTM (10 uM)
T1 construct: p53 Y220C mutant protein (amino acid residues 94-293)
Procedure, shortened: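 Sypro Orange melt (30→50 °C, 0.03 °C/s) with TM taken from a Boltzmann two-state fit. Protein (residues 94-293) at 5 μM was pre-incubated 3 h at 20 °C with compound at 10 μM or 100 μM in pH 7.4 HEPES/NaCl buffer containing 0.01% Pluronic F-127 and 1% DMSO.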

H1299 p53 R273H = test: Cell Proliferation Assay (CellTiter-Glo, CTG), H1299 p53 R273H (NClH1299-inducible p53 R273H); type: cell-based; conditions: Homo sapiens, NCI-H1299, 120 h, CellTiter-Glo, H1299 p53 R273H, 5 days
Procedure, shortened: as §1

[2] = molecular target: T1, p53 Y220C mutant protein (amino acid residues 94-293); test: Surface Plasmon Resonance (SPR) assay, Kd_kinetic; type: binding; conditions: read-out: SPR P53 Y220C KD kinetic
Procedure, shortened: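 Biacore 8K SPR; 16 or 20 °C; Tris 50 mM pH 7.5, NaCl 100 mM, DTT 1 mM, Brij35 0.01%, Tween-20 0.05%, DMSO 1%. Kd_kinetic by 1:1 fit.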

Row | Structure (SMILES) | Emax (p53 Y220C) [%] | AC50 (p53 Y220C) [nM] | IC50 (H1299 p53 Y220C) [nM] | ΔTm at 100 µM [1] [°C] | IC50 (H1299 p53 R273H) [nM] | Kd ([2]; SPR, kinetic KD, p53 Y220C) [nM] | ΔTm at 10 µM [1] [°C] | Kd [2] [nM] | IC50 (NUGC3 p53 Y220C) [nM]
1 | CNC(=O)c1cc(OC)c(NCC#Cc2nc3c(N[C@@H]4CCN(C)C[C@@H]4F)cccn3c2CC(F)(F)F)cc1Cl [Example 111, 2-chloro-4-{[3-(8-{[(3S,4R)-3-fluoro-1-methylpiperidin-4-yl]amino}-3-(2,2,2-trifluoroethyl)imidazo[1,2-a]pyridin-2-yl)prop-2-yn-1-yl]amino}-5-methoxy-N-methylbenzamide] | > 90 | 750 to 1500 | 750 to 1500 | ≥ 10 | ≥ 10000 | < 10 |  |  | 750 to 1500
2 | CN1CC[C@@H](Nc2cccn3c(CC(F)(F)F)c(C#CCNc4ccccc4)nc23)[C@@H](F)C1 [Example 112, (3S,4R)-3-fluoro-1-methyl-N-{2-[3-(phenylamino)prop-1-yn-1-yl]-3-(2,2,2-trifluoroethyl)imidazo[1,2-a]pyridin-8-yl}piperidin-4-amine] | 70 to 80 | > 3000 | > 3000 | 5 to 10 | ≥ 10000 | 100 to 1000 |  |  | > 3000
3 | COCCN1CCC(Nc2cccn3c(CC(F)(F)F)c(C#CCNc4ccc(S(C)(=O)=O)cc4OC)nc23)CC1 [Example 113, N-(2-{3-[(4-methanesulfonyl-2-methoxyphenyl)amino]prop-1-yn-1-yl}-3-(2,2,2-trifluoroethyl)imidazo[1,2-a]pyridin-8-yl)-1-(2-methoxyethyl)piperidin-4-amine] | < 70 | 1500 to 3000 | 750 to 1500 | ≥ 10 | 5000 to 8000 | 10 to 100 |  |  | 750 to 1500
4 | COc1cc(S(C)(=O)=O)ccc1NCC#Cc1nc2c(NC3CC4(C3)CN(C)C4)cccn2c1CC(F)(F)F [Example 114, N-(2-{3-[(4-methanesulfonyl-2-methoxyphenyl)amino]prop-1-yn-1-yl}-3-(2,2,2-trifluoroethyl)imidazo[1,2-a]pyridin-8-yl)-2-methyl-2-azaspiro[3.3]heptan-6-amine] | 70 to 80 | > 3000 | > 3000 | ≥ 10 | 5000 to 8000 | 10 to 100 |  |  | 1500 to 3000
5 | COc1cc(S(C)(=O)=O)ccc1NCC#Cc1nc2c(NC3CC4(COC4)C3)cccn2c1CC(F)(F)F [Example 115, 2-{3-[(4-methanesulfonyl-2-methoxyphenyl)amino]prop-1-yn-1-yl}-N-{2-oxaspiro[3.3]heptan-6-yl}-3-(2,2,2-trifluoroethyl)imidazo[1,2-a]pyridin-8-amine] | < 70 | > 3000 | > 3000 | 5 to 10 | ≥ 10000 | 100 to 1000 |  |  | > 3000
6 | COC(=O)N1CCC(Nc2cccn3c(CC(F)(F)F)c(C#CCNc4ccc(S(C)(=O)=O)cc4OC)nc23)CC1 [Example 116, methyl 4-[(2-{3-[(4-methanesulfonyl-2-methoxyphenyl)amino]prop-1-yn-1-yl}-3-(2,2,2-trifluoroethyl)imidazo[1,2-a]pyridin-8-yl)amino]piperidine-1-carboxylate] | < 70 | > 3000 | > 3000 | 5 to 10 | ≥ 10000 | 100 to 1000 |  |  | > 3000
7 | CNC(=O)N1CCC(Nc2cccn3c(CC(F)(F)F)c(C#CCNc4ccc(S(C)(=O)=O)cc4OC)nc23)CC1 [Example 117, 4-[(2-{3-[(4-methanesulfonyl-2-methoxyphenyl)amino]prop-1-yn-1-yl}-3-(2,2,2-trifluoroethyl)imidazo[1,2-a]pyridin-8-yl)amino]-N-methylpiperidine-1-carboxamide] | 70 to 80 | > 3000 | > 3000 | 5 to 10 | ≥ 10000 | 10 to 100 |  |  | > 3000
8 | CNC(=O)c1ccc(NCC#Cc2nn3c(N[C@@H]4CCN(C)C[C@@H]4F)cccc3c2CC(F)(F)F)c(OC)c1 [Example 118] | 70 to 80 | 1500 to 3000 | 1500 to 3000 | 5 to 10 | ≥ 10000 | 10 to 100 |  |  | 1500 to 3000
9 | CCOc1cc(C(=O)NC)ccc1NCC#Cc1nc2c(N[C@@H]3CCN(C)C[C@@H]3F)cccn2c1SC(F)(F)F [Example 127] | 80 to 90 | < 750 | < 750 | ≥ 10 | 8000 to 10000 | < 10 | ≥ 10 |  | < 750
10 | COc1cc2n[nH]cc2cc1NCC#Cc1nc2c(N[C@@H]3CCN(C)C[C@@H]3F)cccn2c1SC(F)(F)F [Example 128] | 80 to 90 | < 750 | 750 to 1500 | ≥ 10 | < 5000 | < 10 | ≥ 10 |  | 750 to 1500
11 | CNC(=O)c1ccc(NCC#Cc2nc3c(NC4CCN(C)CC4)cccn3c2SC(F)(F)F)c(OC)c1 [Example 129] | 80 to 90 | < 750 | < 750 | ≥ 10 | 5000 to 8000 | < 10 | ≥ 10 |  | < 750

Second part, led by results:

Row | Emax (p53 Y220C) [%] | AC50 (p53 Y220C) [nM] | IC50 (H1299 p53 Y220C) [nM] | ΔTm at 100 µM [1] [°C] | IC50 (H1299 p53 R273H) [nM] | Kd ([2]; SPR, kinetic KD, p53 Y220C) [nM] | ΔTm at 10 µM [1] [°C] | Kd [2] [nM] | Structure (SMILES) | IC50 (NUGC3 p53 Y220C) [nM]
12 | 80 to 90 | < 750 | < 750 | ≥ 10 | ≥ 10000 |  | ≥ 10 | < 10 | COc1cc(C(=O)N2CCOCC2)ccc1NCC#Cc1nc2c(N[C@@H]3CCN(C)C[C@@H]3F)cccn2c1SC(F)(F)F [Example 119] | < 750
13 | > 90 | < 750 | < 750 | ≥ 10 | 8000 to 10000 | < 10 | ≥ 10 |  | CNC(=O)c1cc(OC)c(NCC#Cc2nc3c(N[C@@H]4CCN(C)C[C@@H]4F)cccn3c2SC(F)(F)F)cc1Cl [Example 121] | < 750
14 | 80 to 90 | < 750 | < 750 | ≥ 10 | 5000 to 8000 | < 10 | ≥ 10 |  | CNC(=O)c1ccc(NCC#Cc2nc3c(N[C@@H]4C[C@H]5CC[C@@H]([C@@H]4F)N5C)cccn3c2SC(F)(F)F)c(OC)c1 [Example 122] | < 750
15 | > 90 | < 750 | < 750 |  | ≥ 10000 | < 10 | ≥ 10 |  | CNC(=O)c1ccc(O)c(NCC#Cc2cc3c(N[C@@H]4CCN(C)C[C@@H]4F)nccn3c2SC(F)(F)F)c1 [Example 123] | < 750
16 | > 90 | < 750 | < 750 |  | 5000 to 8000 | < 10 | ≥ 10 |  | CNC(=O)c1ccc(OC)c(NCC#Cc2cc3c(N[C@@H]4CCN(C)C[C@@H]4F)cccn3c2SC(F)(F)F)c1 [Example 124, 3-{[3-(8-{[(3S,4R)-3-fluoro-1-methylpiperidin-4-yl]amino}-3-[(trifluoromethyl)sulfanyl]indolizin-2-yl)prop-2-yn-1-yl]amino}-4-methoxy-N-methylbenzamide] | < 750
17 | > 90 | < 750 | < 750 |  | 5000 to 8000 | < 10 | ≥ 10 |  | CNC(=O)c1ccc(OC)c(NCC#Cc2cc3c(N[C@@H]4CCNC[C@@H]4F)cccn3c2SC(F)(F)F)c1 [Example 125, 3-{[3-(8-{[(3S,4R)-3-fluoropiperidin-4-yl]amino}-3-[(trifluoromethyl)sulfanyl]indolizin-2-yl)prop-2-yn-1-yl]amino}-4-methoxy-N-methylbenzamide] | < 750
18 | > 90 | < 750 | < 750 |  | 8000 to 10000 | < 10 | ≥ 10 |  | CNC(=O)c1ccc(NCC#Cc2cc3c(N[C@@H]4CCN(C)C[C@@H]4F)cccn3c2SC(F)(F)F)c(OC)c1 [Example 126, 4-{[3-(8-{[(3S,4R)-3-fluoro-1-methylpiperidin-4-yl]amino}-3-[(trifluoromethyl)sulfanyl]indolizin-2-yl)prop-2-yn-1-yl]amino}-3-methoxy-N-methylbenzamide] | < 750
